# Test results: paper PMC6776382
# Assay: Two-component Cys-Cys stapling by Pd-catalysed Tsuji-Trost S-allylation with bis(allylic carbonate) Ri ((Z)-but-2-ene-1,4-diyl) or Rj (2-methylenepropane-1,3-diyl), 1.2 eq; 2.4 eq Pd(dba)2, 2.4 eq BIPHEPHOS; bis-thioether formation
# Details: the molecule shown is the open-chain precursor, CH3CN/H2O 2:1, 1.0 mM, 40.0 °C, 3.0 h, scale: 1 = cyclic product formed with full conversion of the linear peptide
substance,measurement,setting,value
H-Ala-Gly-Cys-Lys-Asn-Phe-Phe-Trp-Lys-Thr-Phe-Thr-Ser-Cys-OH (Cys3/Cys14 free SH; one S carries CH2C(=CH2)CH2OCO2Me from Rj at closure; two monomer peaks plus approx. 10% 2+2 dimer),"ring closure, product found",41-membered ring,1
H-Ala-Gly-Cys-Lys-Asn-Phe-Phe-Trp-Lys-Thr-Phe-Thr-Ser-Cys-OH (Cys3/Cys14 free SH; one S carries CH2CH=CHCH2OCO2Me from Ri at closure; single product peak),"ring closure, product found",42-membered ring,1
H-Glu-Trp-Ala-Cys-Thr-Ala-Ala-Cys-Lys-Phe-Leu-Ala-Ala-His-Ala-OH (Cys4/Cys8 free SH; one S carries CH2C(=CH2)CH2OCO2Me from Rj at closure; single product peak),"ring closure, product found",20-membered ring,1
"H-Glu-Trp-Ala-Cys-Thr-Ala-Ala-Cys-Lys-Phe-Leu-Ala-Ala-His-Ala-OH (Cys4/Cys8 free SH; one S carries CH2CH=CHCH2OCO2Me from Ri at closure; two product peaks, presumably E/Z)","ring closure, product found",21-membered ring,1
H-Glu-Trp-Ala-Cys-Thr-Ala-Cys-Ala-Lys-Phe-Leu-Ala-Ala-His-Ala-OH (Cys4/Cys7 free SH; one S carries CH2C(=CH2)CH2OCO2Me from Rj at closure; single product peak),"ring closure, product found",17-membered ring,1
"H-Glu-Trp-Ala-Cys-Thr-Ala-Cys-Ala-Lys-Phe-Leu-Ala-Ala-His-Ala-OH (Cys4/Cys7 free SH; one S carries CH2CH=CHCH2OCO2Me from Ri at closure; two product peaks, presumably E/Z)","ring closure, product found",18-membered ring,1
